Results: ChEMBL document CHEMBL3046954, “Identification of important structural features of thiazolo[4,5-d]pyrimidines required for potent antifungal activity” (2011)
Converted amounts (≈) assume the structure as drawn.

Columns and labels:
Type in all cases: functional
Aspergillus clavatus = assay: Antifungal activity against Aspergillus clavatus MTCC 1323 by broth dilution method
Aspergillus niger = assay: Antifungal activity against Aspergillus niger MTCC 282 by broth dilution method
Candida albicans = assay: Antifungal activity against Candida albicans MTCC 227 by broth dilution method

Row | Compound | MIC (Aspergillus clavatus) [µg/mL] | MIC (Aspergillus niger) [µg/mL] | MIC (Candida albicans) [µg/mL]
1 | COc1ccccc1Nc1nc2c(sc(=S)n2-c2ccccc2)c(=O)n1-c1ccccc1OC | 12.8 (≈ 26.2 µM) | 12.8 (≈ 26.2 µM) | 4 (≈ 8.19 µM)
2 | OC(Cn1cncn1)(Cn1cncn1)c1ccc(F)cc1F [FLUCONAZOLE] | 16 (≈ 52.2 µM) | 16 (≈ 52.2 µM) | 0.5 (≈ 1.63 µM)
3 | COc1ccc(Nc2nc3c(sc(=S)n3-c3ccccc3)c(=O)n2-c2ccc(OC)cc2)cc1 | 0.2 (≈ 0.409 µM) | 0.8 (≈ 1.64 µM) | 0.5 (≈ 1.02 µM)
4 | COc1ccc(Nc2nc3c(sc(=S)n3-c3ccc(Cl)c(Cl)c3)c(=O)n2-c2ccc(OC)cc2)cc1 | 0.8 (≈ 1.44 µM) | 4 (≈ 7.18 µM) | 0.8 (≈ 1.44 µM)
5 | COc1ccc(Nc2nc3c(sc(=S)n3-c3ccccc3OC)c(=O)n2-c2ccc(OC)cc2)cc1 | 0.8 (≈ 1.54 µM) | 4 (≈ 7.71 µM) | 16 (≈ 30.9 µM)
6 | COc1ccc(Nc2nc3c(sc(=S)n3-c3ccc(Br)cc3)c(=O)n2-c2ccc(OC)cc2)cc1 | 12.8 (≈ 22.6 µM) | 0.4 (≈ 0.705 µM) | 4 (≈ 7.05 µM)
7 | COc1ccc(Nc2nc3c(sc(=S)n3-c3ccc(OC)cc3)c(=O)n2-c2ccc(OC)cc2)cc1 | 4 (≈ 7.71 µM) | 0.5 (≈ 0.964 µM) | 4 (≈ 7.71 µM)
8 | COc1ccccc1-n1c(=S)sc2c(=O)n(-c3c(C)cccc3C)c(Nc3c(C)cccc3C)nc21 | 4 (≈ 7.77 µM) | 4 (≈ 7.77 µM) | 4 (≈ 7.77 µM)
9 | NYSTATIN | 7 | 7 | 8
10 | Cc1cccc(C)c1Nc1nc2c(sc(=S)n2-c2ccccc2)c(=O)n1-c1c(C)cccc1C | 4 (≈ 8.25 µM) | 25.6 (≈ 52.8 µM) | 4 (≈ 8.25 µM)
11 | CCn1c(=S)sc2c(=O)n(-c3ccc(OC)cc3)c(Nc3ccc(OC)cc3)nc21 | 16 (≈ 36.3 µM) | 0.8 (≈ 1.82 µM) | 2 (≈ 4.54 µM)
12 | COc1ccc(-n2c(=S)sc3c(=O)n(-c4ccc(Br)cc4)c(Nc4ccc(Br)cc4)nc32)cc1 | 0.2 (≈ 0.324 µM) | 4 (≈ 6.49 µM) | 0.8 (≈ 1.3 µM)
13 | COc1ccc(-n2c(=S)sc3c(=O)n(-c4ccccc4OC)c(Nc4ccccc4OC)nc32)cc1 | 25.6 (≈ 49.4 µM) | 0.4 (≈ 0.771 µM) | 12.8 (≈ 24.7 µM)
14 | COc1ccc(-n2c(=S)sc3c(=O)n(-c4ccc(F)cc4)c(Nc4ccc(F)cc4)nc32)cc1 | 0.4 (≈ 0.809 µM) | 0.5 (≈ 1.01 µM) | 0.4 (≈ 0.809 µM)
15 | Cc1ccc(Nc2nc3c(sc(=S)n3-c3ccccc3)c(=O)n2-c2ccc(C)cc2)cc1 | 0.8 (≈ 1.75 µM) | 12.8 (≈ 28 µM) | 0.8 (≈ 1.75 µM)
16 | O=c1c2sc(=S)n(-c3ccccc3)c2nc(Nc2ccccc2)n1-c1ccccc1 | 25.6 (≈ 59.7 µM) | 25.6 (≈ 59.7 µM) | 4 (≈ 9.33 µM)
17 | COc1ccc(Nc2nc3c(sc(=S)n3-c3ccc(F)c(Cl)c3)c(=O)n2-c2ccc(OC)cc2)cc1 | 0.2 (≈ 0.37 µM) | 4 (≈ 7.39 µM) | 0.4 (≈ 0.739 µM)
18 | O=c1c2sc(=S)n(-c3ccc(Cl)c(Cl)c3)c2nc(Nc2ccc(Br)cc2)n1-c1ccc(Br)cc1 | 16 (≈ 24.4 µM) | 4 (≈ 6.1 µM) | 0.8 (≈ 1.22 µM)
19 | O=c1c2sc(=S)n(-c3ccc(F)c(Cl)c3)c2nc(Nc2ccc(Br)cc2)n1-c1ccc(Br)cc1 | 4 (≈ 6.26 µM) | 4 (≈ 6.26 µM) | 4 (≈ 6.26 µM)
